Experimental data reported in the supplement of paper PMC10331698.
± gives the standard deviation of the averaged measurements.

What was measured:
Test in all cases: level (log10 ratio to DMSO vehicle control); higher = higher biomarker level / cell amount than vehicle control
Conditions in all cases: in DMSO
[1] = compound: C=C(C)C(=O)OCC(F)(F)C(F)(F)C(F)(F)C(F)(F)C(F)(F)C(F)(F)C(F)(F)F
Procedure: (§1)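 BioMAP Diversity Plus panel of 12 human primary cell co-culture systems (3C, 4H, LPS, SAg, BT, BF4T, BE3C, CASM3C, HDF3CGF, KF3CT, MyoF, Mphg). Compounds were added 1 h before stimulation and left for 24 h (MyoF 48 h; BT 72 h for soluble read-outs or 6 d for IgG). Biomarkers were read by ELISA, cytotoxicity by SRB, PBMC viability and proliferation by Alamar Blue. Each well value was divided by the mean of 8 DMSO control wells on the same plate and log10 transformed; duplicate blinded samples were tested at 4 concentrations.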

1-(Perfluorohexyl)octane = compound: CCCCCCCCC(F)(F)C(F)(F)C(F)(F)C(F)(F)C(F)(F)C(F)(F)F [1-(Perfluorohexyl)octane]
Procedure: as §1

[2] = compound: CNS(=O)(=O)C(F)(F)C(F)(F)C(F)(F)C(F)(F)C(F)(F)C(F)(F)C(F)(F)C(F)(F)F [N-Methylperfluorooctanesulfonamide]
Procedure: as §1

Azathioprine = compound: Cn1cnc([N+](=O)[O-])c1Sc1ncnc2[nH]cnc12 [Azathioprine]
Procedure: as §1

[3] = compound: O=C(O)C(F)(F)OC(F)(F)C(F)(F)OC(F)(F)C(F)(F)C(F)(F)C(F)(F)F [Perfluoro-3,6-dioxadecanoic acid]
Procedure: as §1

[4] = compound: O=P(O)(O)CCC(F)(F)C(F)(F)C(F)(F)C(F)(F)C(F)(F)C(F)(F)C(F)(F)C(F)(F)F [((Perfluorooctyl)ethyl)phosphonic acid]
Procedure: as §1

[5] = compound: O=S(=O)(O)C(F)(F)C(F)(F)C(F)(F)C(F)(F)C(F)(F)C(F)(F)C(F)(F)C(F)(F)F [Potassium perfluorooctanesulfonate]
Procedure: as §1

Test System	level (log10) ([1]; 6700 nM)	level (log10) ([1]; 20000 nM)	level (log10) (1-(Perfluorohexyl)octane; 6700 nM)	level (log10) (1-(Perfluorohexyl)octane; 20000 nM)	level (log10) ([2]; 6700 nM)	level (log10) ([2]; 20000 nM)	level (log10) ([2]; 60000 nM)	level (log10) (Azathioprine; 1400 nM)	level (log10) (Azathioprine; 4200 nM)	level (log10) (Azathioprine; 13000 nM)	level (log10) (Azathioprine; 38000 nM)	level (log10) ([3]; 6700 nM)	level (log10) ([3]; 20000 nM)	level (log10) ([3]; 60000 nM)	level (log10) ([4]; 6700 nM)	level (log10) ([4]; 20000 nM)	level (log10) ([4]; 60000 nM)	level (log10) ([5]; 6700 nM)	level (log10) ([5]; 20000 nM)	level (log10) ([5]; 60000 nM)
lMphg:CD40	-0.0265 ± 0.0064	-0.025 ± 0.0042	-0.0185 ± 0.011	-0.023 ± 0.021	-0.054 ± 0.042	-0.0365 ± 0.021	0.0255 ± 0.063	-0.0125 ± 0.04	-0.0205 ± 0.013	-0.025 ± 0.0014	-0.106 ± 0.03	0.002 ± 0.047	-0.0175 ± 0.035	-0.102 ± 0.023	-0.015 ± 0.017	-0.065 ± 0.017	-0.037 ± 0.021	-0.0245 ± 0.0035	-0.0125 ± 0.0092	0.002 ± 0.017
lMphg:CD62E/E-Selectin	-0.0215 ± 0.0021	-0.021 ± 0.0042	0.0205 ± 0.012	-0.0145 ± 0.03	-0.12 ± 0.034	-0.214 ± 0.03	-0.182 ± 0.058	-0.037 ± 0.045	-0.031 ± 0.048	-0.064 ± 0.0085	-0.148 ± 0.051	0.0095 ± 0.016	-0.0035 ± 0.037	0.0135 ± 0.015	0.011 ± 0.0014	0.027 ± 0.0085	0.113 ± 0.018	0.0145 ± 0.0092	0.052 ± 0.023	0.204
lMphg:CD69	-0.0135 ± 0.018	-0.004 ± 0.038	-0.0265 ± 0.0078	-0.0345 ± 0.015	-0.0715 ± 0.03	-0.0165 ± 0.013	0.061 ± 0.027	0.027 ± 0.013	-0.0205 ± 0.029	-0.004 ± 0.0028	0.022 ± 0.011	-0.0505 ± 0.021	-0.0425 ± 0.0021	-0.196 ± 0.063	-0.0125 ± 0.013	-0.0425 ± 0.04	0.0275 ± 0.043	-0.04 ± 0.0028	-0.052 ± 0.02	-0.074 ± 0.04
lMphg:CD106/VCAM-1	-0.0385 ± 0.0035	-0.0535 ± 0.026	-0.0105 ± 0.012	-0.035 ± 0.017	0.015 ± 0.014	0.0515 ± 0.0092	0.0645 ± 0.026	0 ± 0.0057	-0.003 ± 0.0085	-0.036	-0.0835 ± 0.025	-0.004 ± 0.018	-0.0055 ± 0.021	-0.0585 ± 0.039	-0.013 ± 0.016	-0.0455 ± 0.018	-0.055 ± 0.0014	-0.012 ± 0.018	0.0015 ± 0.005	-0.038 ± 0.017
lMphg:CXCL8/IL-8	-0.042 ± 0.021	-0.0315 ± 0.047	-0.0215 ± 0.0078	0.022 ± 0.02	-0.0025 ± 0.0078	0.112 ± 0.022	0.118 ± 0.044	-0.0045 ± 0.047	-0.042 ± 0.021	0.0375 ± 0.0064	0.0825 ± 0.019	0.01 ± 0.0057	0.0595 ± 0.025	0.0695 ± 0.021	-0.0105 ± 0.025	0.0115 ± 0.028	0.148 ± 0.084	-0.0435 ± 0.005	0.0135 ± 0.03	0.094 ± 0.0028
